“And” between values parts separate entries of the source, which are not always exact repeats. Equal entries are not always repeated. Where two headings read alike, the source gives them in different places.
Tested on: mtrC-lacZ expression
Type: cell-based, Neisseria gonorrhoeae
Details: for Miller units: single well; for mtrC-lacZ β-galactosidase activity, Mean: left block of sheet (mtrCDE)
[1] = second block of sheet (c39-c76), ΔmtrR + mtrR R176E in trans, 6.25 µM
[2] = second block of sheet (c39-c76), ΔmtrR + mtrR R176E in trans, 12.5 µM
[3] = second block of sheet (c39-c76), ΔmtrR + mtrR R176E in trans, 25 µM
[4] = second block of sheet (c39-c76), ΔmtrR + mtrR R176E in trans, 50 µM

SMILES: C[C@]12CC[C@@H]3c4ccc(O)cc4CC[C@H]3[C@@H]1CC[C@@H]2O [β-Estradiol, β-estradiol]
- β-galactosidase activity, individual replicate (mtrR WT in cis, 50 µM hormone, single replicate values, second (right) block): 113 Miller units and 109 Miller units
- β-galactosidase activity, Miller units (single replicate) (mtrR WT in cis, 50 µM, first data set (c15-c36)): 196 Miller units and 185 Miller units and 161 Miller units
- β-galactosidase activity, Miller units (single replicate) (mtrR WT in cis, 50 µM, second data set (c53-c74)): 92 Miller units and 82 Miller units
- β-galactosidase activity, Mean [1]: 80 Miller units
- β-galactosidase activity, single replicate [1]: 96 Miller units and 78 Miller units and 89 Miller units and 60 Miller units
- β-galactosidase activity, Mean [2]: 81 Miller units
- β-galactosidase activity, single replicate [2]: 106 Miller units and 86 Miller units and 70 Miller units and 62 Miller units
- β-galactosidase activity, Mean [3]: 94 Miller units
- β-galactosidase activity, single replicate [3]: 126 Miller units and 96 Miller units and 86 Miller units and 68 Miller units
- β-galactosidase activity, Mean [4]: 89 Miller units
- β-galactosidase activity, single replicate [4]: 107 Miller units and 93 Miller units and 84 Miller units and 73 Miller units
- Miller units (plate rows 1-4, plate columns 1-6 (first strain), 6.25 µM hormone): 104 Miller units and 79 Miller units and 90 Miller units and 61 Miller units
- Miller units (plate rows 1-4, plate columns 1-6 (first strain), 12.5 µM hormone): 145 Miller units and 115 Miller units and 112 Miller units and 81 Miller units
- Miller units (plate rows 1-4, plate columns 1-6 (first strain), 25 µM hormone): 166 Miller units and 152 Miller units and 162 Miller units and 114 Miller units
- Miller units (plate rows 1-4, plate columns 1-6 (first strain), 50 µM hormone): 161 Miller units and 192 Miller units and 168 Miller units and 126 Miller units
- Miller units (plate rows 1-4, plate columns 7-12 (second strain), 12.5 µM hormone): 165 Miller units and 161 Miller units and 99 Miller units
- Miller units (plate rows 1-4, plate columns 7-12 (second strain), 25 µM hormone): 232 Miller units and 177 Miller units and 156 Miller units and 133 Miller units
- Miller units (plate rows 1-4, plate columns 7-12 (second strain), 50 µM hormone): 195 Miller units and 178 Miller units and 151 Miller units and 114 Miller units
- β-galactosidase activity, mtrC-lacZ, Mean (strain WT (FA19/pLES94-mtrC), hormone 6.25 µM): 131 Miller units
- β-galactosidase activity, mtrC-lacZ, Mean (strain WT (FA19/pLES94-mtrC), hormone 12.5 µM): 148 Miller units
- β-galactosidase activity, mtrC-lacZ, Mean (strain WT (FA19/pLES94-mtrC), hormone 25 µM): 177 Miller units
- β-galactosidase activity, mtrC-lacZ, Mean (strain WT (FA19/pLES94-mtrC), hormone 50 µM): 224 Miller units
- mtrC-lacZ β-galactosidase activity, Mean (strain WT, 6.25 µM hormone): 137 Miller units
- β-galactosidase activity, Mean (strain WT, 6.25 µM hormone, second (right) untitled block of sheet Figure S10 (mtrC)): 44 Miller units
- mtrC-lacZ β-galactosidase activity, Mean (strain WT, 12.5 µM hormone): 155 Miller units
- β-galactosidase activity, Mean (strain WT, 12.5 µM hormone, second (right) untitled block of sheet Figure S10 (mtrC)): 54 Miller units
- mtrC-lacZ β-galactosidase activity, Mean (strain WT, 25 µM hormone): 162 Miller units
- β-galactosidase activity, Mean (strain WT, 25 µM hormone, second (right) untitled block of sheet Figure S10 (mtrC)): 60 Miller units
- mtrC-lacZ β-galactosidase activity, Mean (strain WT, 50 µM hormone): 182 Miller units
- β-galactosidase activity, Mean (strain WT, 50 µM hormone, second (right) untitled block of sheet Figure S10 (mtrC)): 99 Miller units
- activation of mtrC (strain producing MtrR R176E): clearly weaker activation
- β-galactosidase activity, mtrC-lacZ, Mean (strain ΔmtrR (FA19 ∆mtrR/pLES94-mtrC), hormone 6.25 µM): 210 Miller units
- β-galactosidase activity, mtrC-lacZ, Mean (strain ΔmtrR (FA19 ∆mtrR/pLES94-mtrC), hormone 12.5 µM): 218 Miller units
- β-galactosidase activity, mtrC-lacZ, Mean (strain ΔmtrR (FA19 ∆mtrR/pLES94-mtrC), hormone 25 µM): 243 Miller units
- β-galactosidase activity, mtrC-lacZ, Mean (strain ΔmtrR (FA19 ∆mtrR/pLES94-mtrC), hormone 50 µM): 255 Miller units
- β-galactosidase activity, mtrC-lacZ, Mean (strain ΔmtrR + mtrR D171A (pGCC3-mtrR D171A), hormone 6.25 µM): 149 Miller units
- β-galactosidase activity, mtrC-lacZ, Mean (strain ΔmtrR + mtrR D171A (pGCC3-mtrR D171A), hormone 12.5 µM): 157 Miller units
- β-galactosidase activity, mtrC-lacZ, Mean (strain ΔmtrR + mtrR D171A (pGCC3-mtrR D171A), hormone 25 µM): 167 Miller units
- β-galactosidase activity, mtrC-lacZ, Mean (strain ΔmtrR + mtrR D171A (pGCC3-mtrR D171A), hormone 50 µM): 163 Miller units
- mtrC-lacZ β-galactosidase activity, Mean (strain ΔmtrR + mtrR R176E, 6.25 µM hormone): 194 Miller units
- β-galactosidase activity, Mean (strain ΔmtrR + mtrR R176E, 6.25 µM hormone, second (right) untitled block of sheet Figure S10 (mtrC)): 80 Miller units
- mtrC-lacZ β-galactosidase activity, Mean (strain ΔmtrR + mtrR R176E, 12.5 µM hormone): 205 Miller units
- β-galactosidase activity, Mean (strain ΔmtrR + mtrR R176E, 12.5 µM hormone, second (right) untitled block of sheet Figure S10 (mtrC)): 81 Miller units
- mtrC-lacZ β-galactosidase activity, Mean (strain ΔmtrR + mtrR R176E, 25 µM hormone): 197 Miller units
- β-galactosidase activity, Mean (strain ΔmtrR + mtrR R176E, 25 µM hormone, second (right) untitled block of sheet Figure S10 (mtrC)): 94 Miller units
- mtrC-lacZ β-galactosidase activity, Mean (strain ΔmtrR + mtrR R176E, 50 µM hormone): 269 Miller units
- β-galactosidase activity, Mean (strain ΔmtrR + mtrR R176E, 50 µM hormone, second (right) untitled block of sheet Figure S10 (mtrC)): 89 Miller units
- β-galactosidase activity, mtrC-lacZ, Mean (strain ΔmtrR + mtrR WT (pGCC3-mtrR), hormone 6.25 µM): 116 Miller units
- β-galactosidase activity, mtrC-lacZ, Mean (strain ΔmtrR + mtrR WT (pGCC3-mtrR), hormone 12.5 µM): 113 Miller units
- β-galactosidase activity, mtrC-lacZ, Mean (strain ΔmtrR + mtrR WT (pGCC3-mtrR), hormone 25 µM): 138 Miller units
- β-galactosidase activity, mtrC-lacZ, Mean (strain ΔmtrR + mtrR WT (pGCC3-mtrR), hormone 50 µM): 158 Miller units
- mtrC-lacZ β-galactosidase activity, Mean (strain ΔmtrR + mtrR WT, 6.25 µM hormone): 106 Miller units
- β-galactosidase activity, Mean (strain ΔmtrR + mtrR WT, 6.25 µM hormone, second (right) untitled block of sheet Figure S10 (mtrC)): 17 Miller units
- mtrC-lacZ β-galactosidase activity, Mean (strain ΔmtrR + mtrR WT, 12.5 µM hormone): 117 Miller units
- β-galactosidase activity, Mean (strain ΔmtrR + mtrR WT, 12.5 µM hormone, second (right) untitled block of sheet Figure S10 (mtrC)): 27 Miller units
- mtrC-lacZ β-galactosidase activity, Mean (strain ΔmtrR + mtrR WT, 25 µM hormone): 136 Miller units
- β-galactosidase activity, Mean (strain ΔmtrR + mtrR WT, 25 µM hormone, second (right) untitled block of sheet Figure S10 (mtrC)): 36 Miller units
- mtrC-lacZ β-galactosidase activity, Mean (strain ΔmtrR + mtrR WT, 50 µM hormone): 154 Miller units
- β-galactosidase activity, Mean (strain ΔmtrR + mtrR WT, 50 µM hormone, second (right) untitled block of sheet Figure S10 (mtrC)): 45 Miller units
- mtrC-lacZ β-galactosidase activity, Mean (strain ΔmtrR, 6.25 µM hormone): 273 Miller units
- β-galactosidase activity, Mean (strain ΔmtrR, 6.25 µM hormone, second (right) untitled block of sheet Figure S10 (mtrC)): 94 Miller units
- mtrC-lacZ β-galactosidase activity, Mean (strain ΔmtrR, 12.5 µM hormone): 263 Miller units
- β-galactosidase activity, Mean (strain ΔmtrR, 12.5 µM hormone, second (right) untitled block of sheet Figure S10 (mtrC)): 89 Miller units
- mtrC-lacZ β-galactosidase activity, Mean (strain ΔmtrR, 25 µM hormone): 239 Miller units
- β-galactosidase activity, Mean (strain ΔmtrR, 25 µM hormone, second (right) untitled block of sheet Figure S10 (mtrC)): 98 Miller units
- mtrC-lacZ β-galactosidase activity, Mean (strain ΔmtrR, 50 µM hormone): 257 Miller units
- β-galactosidase activity, Mean (strain ΔmtrR, 50 µM hormone, second (right) untitled block of sheet Figure S10 (mtrC)): 101 Miller units
- β-galactosidase activity, Miller units (single replicate) (ΔmtrR + mtrR WT in trans, 6.25 µM, first data set (c15-c36)): 87 Miller units and 127 Miller units
- β-galactosidase activity, Miller units (single replicate) (ΔmtrR + mtrR WT in trans, 6.25 µM, second data set (c53-c74)): 22 Miller units and 9 Miller units and 12 Miller units and 27 Miller units
- β-galactosidase activity, Miller units (single replicate) (ΔmtrR + mtrR WT in trans, 12.5 µM, first data set (c15-c36)): 84 Miller units and 130 Miller units
- β-galactosidase activity, Miller units (single replicate) (ΔmtrR + mtrR WT in trans, 12.5 µM, second data set (c53-c74)): 33 Miller units and 23 Miller units and 27 Miller units
- β-galactosidase activity, Miller units (single replicate) (ΔmtrR + mtrR WT in trans, 25 µM, first data set (c15-c36)): 124 Miller units and 127 Miller units
- β-galactosidase activity, Miller units (single replicate) (ΔmtrR + mtrR WT in trans, 25 µM, second data set (c53-c74)): 45 Miller units and 34 Miller units and 39 Miller units and 27 Miller units
- β-galactosidase activity, Miller units (single replicate) (ΔmtrR + mtrR WT in trans, 50 µM, first data set (c15-c36)): 156 Miller units and 168 Miller units
- β-galactosidase activity, Miller units (single replicate) (ΔmtrR + mtrR WT in trans, 50 µM, second data set (c53-c74)): 51 Miller units and 40 Miller units and 39 Miller units and 48 Miller units
- β-galactosidase activity, Miller units (single replicate) (ΔmtrR, 6.25 µM, first data set (c15-c36)): 214 Miller units and 261 Miller units and 306 Miller units and 310 Miller units
- β-galactosidase activity, Miller units (single replicate) (ΔmtrR, 6.25 µM, second data set (c53-c74)): 115 Miller units and 96 Miller units and 95 Miller units and 69 Miller units
- β-galactosidase activity, Miller units (single replicate) (ΔmtrR, 12.5 µM, first data set (c15-c36)): 280 Miller units and 263 Miller units and 247 Miller units and 264 Miller units
- β-galactosidase activity, Miller units (single replicate) (ΔmtrR, 12.5 µM, second data set (c53-c74)): 97 Miller units and 87 Miller units and 92 Miller units and 78 Miller units
- β-galactosidase activity, Miller units (single replicate) (ΔmtrR, 25 µM, first data set (c15-c36)): 208 Miller units and 262 Miller units and 216 Miller units and 271 Miller units
- β-galactosidase activity, Miller units (single replicate) (ΔmtrR, 25 µM, second data set (c53-c74)): 139 Miller units and 80 Miller units and 83 Miller units and 89 Miller units
- β-galactosidase activity, Miller units (single replicate) (ΔmtrR, 50 µM, first data set (c15-c36)): 240 Miller units and 239 Miller units and 224 Miller units and 327 Miller units
- β-galactosidase activity, Miller units (single replicate) (ΔmtrR, 50 µM, second data set (c53-c74)): 128 Miller units and 93 Miller units and 88 Miller units and 96 Miller units

Source: publication PMC10850145, “Hormonal steroids induce multidrug resistance and stress response genes in Neisseria gonorrhoeae by binding to MtrR” (Nature Communications, 2024)
